In paper PMC2730839 (Biochemistry, 2009):

Assays:
Format in all cases: binding
[1] = biological target: T1, benzoylformate decarboxylase (BFDC) (Pseudomonas putida, UniProt P20906); assay: circular dichroism titration at […] nm
[2] = biological target: T1, benzoylformate decarboxylase (BFDC); assay: X-ray crystal structure
[3] = biological target: T1, benzoylformate decarboxylase (BFDC); assay: X-ray crystal structure; remark: listed apart in the source

T1 sequence (P20906 whole entry): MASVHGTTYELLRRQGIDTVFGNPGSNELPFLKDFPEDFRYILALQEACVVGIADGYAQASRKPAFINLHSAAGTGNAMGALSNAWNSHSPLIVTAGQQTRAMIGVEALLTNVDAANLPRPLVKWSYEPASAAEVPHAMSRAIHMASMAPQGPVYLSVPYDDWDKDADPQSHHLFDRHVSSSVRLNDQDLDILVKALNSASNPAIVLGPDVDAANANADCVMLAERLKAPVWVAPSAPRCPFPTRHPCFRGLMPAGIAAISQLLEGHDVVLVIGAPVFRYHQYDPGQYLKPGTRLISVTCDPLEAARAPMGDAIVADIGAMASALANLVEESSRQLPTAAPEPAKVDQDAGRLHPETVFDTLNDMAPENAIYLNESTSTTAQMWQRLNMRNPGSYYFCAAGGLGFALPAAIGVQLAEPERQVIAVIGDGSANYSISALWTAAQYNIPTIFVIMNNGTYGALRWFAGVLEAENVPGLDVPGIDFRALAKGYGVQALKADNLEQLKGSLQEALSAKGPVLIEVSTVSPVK

Q: `COP(=O)(O)C(C)=O` [MAP, methyl acetylphosphonate] was tested. Which Kd [1] did it give?
A: 5490 µM

Q: `Cc1ncc(C[n+]2csc(CCOP(=O)([O-])OP(=O)(O)O)c2C)c(N)n1` [ThDP, thiamin diphosphate] was tested. Which “X-ray crystal structure (1.37 Å), seen as its adduct with MBP” value [2] did it give?
A: the observed electron density is best fit by the covalent adduct between ThDP and MBP

Q: How did the Kd [3] turn out when `COP(=O)(O)C(=O)c1ccccc1` [MBP, methyl benzoylphosphonate] was run?
A: 113 µM
